Experimental data published in patent publication EP0831093A1, “1-Carba-(dethia)-Cephalosporin Derivatives” (F. HOFFMANN-LA ROCHE AG, priority 1996, dated 1998).
Values after ≈ are worked out from the molar mass of the structure shown. Where a name gives a salt, the structure may show the parent alone. Read-outs that look alike come from different tables or passages of the source.

Tests used:
Test in all cases: MIC, agar dilution method in Mueller Hinton agar
Assay type in all cases: cell-based
C.freundii 902 = conditions: Citrobacter freundii
Protocol: (§1) In vitro activity was determined by minimum inhibitory concentration in a microorganism spectum by the agar dilution method in Mueller Hinton agar, inoculum = 10^4 CFU/spot.

S.pyogenes b 15 = conditions: Streptococcus pyogenes
Protocol: as §1

C.freundii 43 = conditions: Citrobacter freundii
Protocol: as §1

E.coli 25922 = conditions: Escherichia coli
Protocol: as §1

E.coli TEM1 = conditions: Escherichia coli
Protocol: as §1

S.aureus 6538 = conditions: Staphylococcus aureus
Protocol: as §1

S.pneumoniae. 907 = conditions: Streptococcus pneumoniae
Protocol: as §1

E.faecalis 6 = conditions: Enterococcus faecalis
Protocol: as §1

E.cloacae 908SSi = conditions: Enterobacter cloacae
Protocol: as §1

P.mirabilis 2117 = conditions: Proteus mirabilis
Protocol: as §1

S.marcescens 69438 = conditions: Serratia marcescens
Protocol: as §1

P.vulgaris 1028 = conditions: Proteus vulgaris
Protocol: as §1

E.cloacae 908R = conditions: Enterobacter cloacae
Protocol: as §1

K.pneumoniae 418 = conditions: Klebsiella pneumoniae
Protocol: as §1

S.aureus 743 (MRSA) = conditions: Staphylococcus aureus
Protocol: as §1

P.aeruginosa ATCC27853 = conditions: Pseudomonas aeruginosa
Protocol: as §1

[1] = C.freundii 902, inoculum = 10^4 CFU/spot, read-out: MIC
[2] = S.pyogenes b 15, inoculum = 10^4 CFU/spot, read-out: MIC
[3] = C.freundii 43, inoculum = 10^4 CFU/spot, read-out: MIC
[4] = E.coli 25922, inoculum = 10^4 CFU/spot, read-out: MIC
[5] = S.aureus 6538, inoculum = 10^4 CFU/spot, read-out: MIC
[6] = S.pneumoniae. 907, inoculum = 10^4 CFU/spot, read-out: MIC
[7] = E.faecalis 6, inoculum = 10^4 CFU/spot, read-out: MIC
[8] = E.cloacae 908SSi, inoculum = 10^4 CFU/spot, read-out: MIC
[9] = P.mirabilis 2117, inoculum = 10^4 CFU/spot, read-out: MIC
[10] = S.marcescens 69438, inoculum = 10^4 CFU/spot, read-out: MIC
[11] = P.vulgaris 1028, inoculum = 10^4 CFU/spot, read-out: MIC
[12] = E.cloacae 908R, inoculum = 10^4 CFU/spot, read-out: MIC
[13] = K.pneumoniae 418, inoculum = 10^4 CFU/spot, read-out: MIC
[14] = S.aureus 743 (MRSA), inoculum = 10^4 CFU/spot, read-out: MIC
[15] = P.aeruginosa ATCC27853, inoculum = 10^4 CFU/spot, read-out: MIC

## C[n+]1cccc(N2CC/C(=C\C3=C(C(=O)[O-])N4C(=O)[C@@H](NC(=O)/C(=N\O)c5csc(N)n5)[C@H]4CC3)C2=O)c1 [C, (6R,7S)-7-[(Z)-2-(2-Amino-thiazol-4-yl)-2-hydroxyimino-acetylamino]-3-[(E)-1-(1-methyl-pyridin-1-ium-3-yl)-2-oxo-pyrrolidin-3-ylidenemethyl]-8-oxo-1-aza-bicyclo[4.2.0]oct-2-ene-2-carboxylate]
C.freundii 902; [1]
  MIC: ≤ 0.06 µg/mL
S.pyogenes b 15; [2]
  MIC: ≤ 0.06 µg/mL
C.freundii 43; [3]
  MIC: 0.5 µg/mL (≈ 0.93 µM)
E.coli 25922; [4]
  MIC: ≤ 0.06 µg/mL
E.coli TEM1
  MIC: ≤ 0.06 µg/mL
S.aureus 6538; [5]
  MIC: 1 µg/mL (≈ 1.86 µM)
S.pneumoniae. 907; [6]
  MIC: ≤ 0.06 µg/mL
E.faecalis 6; [7]
  MIC: 0.5 µg/mL (≈ 0.93 µM)
E.cloacae 908SSi; [8]
  MIC: ≤ 0.06 µg/mL
P.mirabilis 2117; [9]
  MIC: ≤ 0.06 µg/mL
S.marcescens 69438; [10]
  MIC: 0.12 µg/mL (≈ 0.223 µM)
P.vulgaris 1028; [11]
  MIC: 16 µg/mL (≈ 29.8 µM)
E.cloacae 908R; [12]
  MIC: 2 µg/mL (≈ 3.72 µM)
K.pneumoniae 418; [13]
  MIC: ≤ 0.06 µg/mL
S.aureus 743 (MRSA); [14]
  MIC: 8 µg/mL (≈ 14.9 µM)
P.aeruginosa ATCC27853; [15]
  MIC: 4 µg/mL (≈ 7.44 µM)

## C[n+]1cccc(N2CC/C(=C\C3=C(C(=O)[O-])N4C(=O)[C@@H](NC(=O)/C(=N\OC5CCCC5)c5nsc(N)n5)[C@H]4CC3)C2=O)c1 [E, (6R,7S)-7-[(Z)-2-(5-Amino-[1,2,4]thiadiazol-3-yl)-cyclopentyloximino-acetylamino]-3-[(E)-1-(1-methyl-pyridin-1-ium-3-yl)-2-oxo-pyrroliden-3-ylidenemethyl]-8-oxo-1-aza-bicyclo[4.2.0]oct-2-ene-2-carboxylate]
C.freundii 902; [1]
  MIC: ≤ 0.06 µg/mL
S.pyogenes b 15; [2]
  MIC: ≤ 0.06 µg/mL
C.freundii 43; [3]
  MIC: 0.5 µg/mL (≈ 0.824 µM)
E.coli 25922; [4]
  MIC: ≤ 0.06 µg/mL
E.coli TEM1
  MIC: 1 µg/mL (≈ 1.65 µM)
S.aureus 6538; [5]
  MIC: 0.5 µg/mL (≈ 0.824 µM)
S.pneumoniae. 907; [6]
  MIC: ≤ 0.06 µg/mL
E.faecalis 6; [7]
  MIC: 1 µg/mL (≈ 1.65 µM)
E.cloacae 908SSi; [8]
  MIC: ≤ 0.06 µg/mL
P.mirabilis 2117; [9]
  MIC: 2 µg/mL (≈ 3.3 µM)
S.marcescens 69438; [10]
  MIC: 1 µg/mL (≈ 1.65 µM)
P.vulgaris 1028; [11]
  MIC: 32 µg/mL (≈ 52.7 µM)
E.cloacae 908R; [12]
  MIC: 0.5 µg/mL (≈ 0.824 µM)
K.pneumoniae 418; [13]
  MIC: 0.25 µg/mL (≈ 0.412 µM)
S.aureus 743 (MRSA); [14]
  MIC: 4 µg/mL (≈ 6.59 µM)
P.aeruginosa ATCC27853; [15]
  MIC: 8 µg/mL (≈ 13.2 µM)

## C[n+]1cccc(N2CC/C(=C\C3=C(C(=O)[O-])N4C(=O)[C@@H](NC(=O)/C(=N\OCC(=O)O)c5csc(N)n5)[C@H]4CC3)C2=O)c1 [F, (6R,7S)-7-[(Z)-2-(2-Amino-thiazol-4-yl)-2-carboxymethoxyimino-acetylamino]-3-[(E)-1-(1-methyl-pyridin-1-ium-3-yl)-2-oxo-pyrrolidin-3-ylidenemethyl]-8-oxo-1-aza-bicyclo[4.2.0]oct-2-ene-2-carboxylate Na salt (1:1)]
C.freundii 902; [1]
  MIC: ≤ 0.06 µg/mL
S.pyogenes b 15; [2]
  MIC: 0.12 µg/mL
C.freundii 43; [3]
  MIC: 2 µg/mL
E.coli 25922; [4]
  MIC: ≤ 0.06 µg/mL
E.coli TEM1
  MIC: ≤ 0.06 µg/mL
S.aureus 6538; [5]
  MIC: 32 µg/mL
S.pneumoniae. 907; [6]
  MIC: ≤ 0.06 µg/mL
E.faecalis 6; [7]
  MIC: > 32 µg/mL
E.cloacae 908SSi; [8]
  MIC: ≤ 0.06 µg/mL
P.mirabilis 2117; [9]
  MIC: ≤ 0.06 µg/mL
S.marcescens 69438; [10]
  MIC: ≤ 0.06 µg/mL
P.vulgaris 1028; [11]
  MIC: 0.12 µg/mL
E.cloacae 908R; [12]
  MIC: 4 µg/mL
K.pneumoniae 418; [13]
  MIC: ≤ 0.06 µg/mL
S.aureus 743 (MRSA); [14]
  MIC: > 32 µg/mL
P.aeruginosa ATCC27853; [15]
  MIC: 1 µg/mL

## C[n+]1ccc(N2CC/C(=C\C3=C(C(=O)[O-])N4C(=O)[C@@H](NC(=O)/C(=N\OC5CCCC5)c5csc(N)n5)[C@H]4CC3)C2=O)cc1 [G, (6R,7S)-7-[(Z)-2-(2-Amino-thiazol-4-yl)-2-cyclopentyloxyimino-acetylamino]-3-[(E)-1-(1-methyl-pyridin-1-ium-4-yl)-2-oxo-pyrrolidin-3-ylidenemethyl]-8-oxo-1-aza-bicyclo[4.2.0]oct-2-ene-2-carboxylate]
C.freundii 902; [1]
  MIC: ≤ 0.06 µg/mL
S.pyogenes b 15; [2]
  MIC: ≤ 0.06 µg/mL
C.freundii 43; [3]
  MIC: 1 µg/mL (≈ 1.65 µM)
E.coli 25922; [4]
  MIC: ≤ 0.06 µg/mL
E.coli TEM1
  MIC: 0.5 µg/mL (≈ 0.826 µM)
S.aureus 6538; [5]
  MIC: 2 µg/mL (≈ 3.3 µM)
S.pneumoniae. 907; [6]
  MIC: ≤ 0.06 µg/mL
E.faecalis 6; [7]
  MIC: 1 µg/mL (≈ 1.65 µM)
E.cloacae 908SSi; [8]
  MIC: ≤ 0.06 µg/mL
P.mirabilis 2117; [9]
  MIC: 1 µg/mL (≈ 1.65 µM)
S.marcescens 69438; [10]
  MIC: 0.5 µg/mL (≈ 0.826 µM)
P.vulgaris 1028; [11]
  MIC: 16 µg/mL (≈ 26.4 µM)
E.cloacae 908R; [12]
  MIC: 2 µg/mL (≈ 3.3 µM)
K.pneumoniae 418; [13]
  MIC: 0.25 µg/mL (≈ 0.413 µM)
S.aureus 743 (MRSA); [14]
  MIC: 32 µg/mL (≈ 52.8 µM)
P.aeruginosa ATCC27853; [15]
  MIC: 4 µg/mL (≈ 6.6 µM)

## Nc1nc(/C(=N/O)C(=O)N[C@@H]2C(=O)N3C(C(=O)O)=C(/C=C4\CCN(c5ccc(O)cc5)C4=O)CC[C@H]23)cs1 [B, (6R,7S)-7-[(Z)-2-(Amino-thiazol-4-yl)-2-hydroxyimino-acetylamino]-3-[(E)-1-(4-hydroxy-phenyl)-2-oxo-pyrrolidin-3-ylidenemethyl]-8-oxo-1-aza-bicyclo[4.2.0]oct-2-ene-2-carboxylic acid sodium salt (1:1)]
C.freundii 902; [1]
  MIC: 0.5 µg/mL
S.pyogenes b 15; [2]
  MIC: ≤ 0.06 µg/mL
C.freundii 43; [3]
  MIC: 32 µg/mL
E.coli 25922; [4]
  MIC: 0.25 µg/mL
E.coli TEM1
  MIC: 0.12 µg/mL
S.aureus 6538; [5]
  MIC: 1 µg/mL
S.pneumoniae. 907; [6]
  MIC: ≤ 0.06 µg/mL
E.faecalis 6; [7]
  MIC: 4 µg/mL
E.cloacae 908SSi; [8]
  MIC: 0.5 µg/mL
S.marcescens 69438; [10]
  MIC: 4 µg/mL
P.vulgaris 1028; [11]
  MIC: > 32 µg/mL
E.cloacae 908R; [12]
  MIC: > 32 µg/mL
K.pneumoniae 418; [13]
  MIC: 0.12 µg/mL
S.aureus 743 (MRSA); [14]
  MIC: 32 µg/mL
P.aeruginosa ATCC27853; [15]
  MIC: 32 µg/mL

## Nc1nc(/C(=N/O)C(=O)N[C@@H]2C(=O)N3C(C(=O)[O-])=C(/C=C4\CCN(CC(F)(F)F)C4=O)CC[C@H]23)cs1.[Na+] [A, (6R,7S)-7-[(Z)-2-(2-Amino-thiazol-4-yl)-2-hydroxyimino-acetylamino]-8-oxo-3-[(E)-2-oxo-1-(2,2,2-trifluoro-ethyl)-pyrrolidin-3-ylidenemethyl]-1-aza-bicyclo[4.2.0]oct-2-ene-2-carboxylic acid sodium salt (1:1)]
C.freundii 902; 902
  MIC: 0.25 µg/mL
S.pyogenes b 15; 15
  MIC: ≤ 0.06 µg/mL
C.freundii 43; 43
  MIC: 8 µg/mL
E.coli 25922; 25922
  MIC: ≤ 0.06 µg/mL
E.coli TEM1
  MIC: 0.12 µg/mL
S.aureus 6538; 6538
  MIC: 1 µg/mL
S.pneumoniae. 907
  MIC: ≤ 0.06 µg/mL
E.faecalis 6; 6
  MIC: 8 µg/mL
E.cloacae 908SSi; 908SSI
  MIC: 2 µg/mL
P.mirabilis 2117; 2117
  MIC: ≤ 0.06 µg/mL
S.marcescens 69438; 69438
  MIC: 2 µg/mL
P.vulgaris 1028; 1028
  MIC: > 32 µg/mL
E.cloacae 908R; 908R
  MIC: > 32 µg/mL
K.pneumoniae 418; 418
  MIC: 0.12 µg/mL
S.aureus 743 (MRSA); MRSA
  MIC: 32 µg/mL
P.aeruginosa ATCC27853; ATCC27853
  MIC: 32 µg/mL

## C[n+]1cccc(N2CC/C(=C\C3=C(C(=O)[O-])N4C(=O)[C@@H](NC(=O)/C(=N\O)c5nsc(N)n5)[C@H]4CC3)C2=O)c1 [D, (6R,7S)-7-[(Z)-2-(5-Amino-[1,2,4]thiadiazol-3-yl)-hydroxyimino-acetylamino]-3-[(E)-1-(1-methyl-pyridin-1-ium-3-yl)-2-oxo-pyrrolidin-3-ylidenemethyl]-8-oxo-1-aza-bicyclo[4.2.0]oct-2-ene-2-carboxylate]
C.freundii 902; [1]
  MIC: ≤ 0.06 µg/mL
S.pyogenes b 15; [2]
  MIC: ≤ 0.06 µg/mL
C.freundii 43; [3]
  MIC: 0.5 µg/mL (≈ 0.928 µM)
E.coli 25922; [4]
  MIC: 0.06 µg/mL (≈ 0.111 µM)
E.coli TEM1
  MIC: 0.25 µg/mL (≈ 0.464 µM)
S.aureus 6538; [5]
  MIC: 0.5 µg/mL (≈ 0.928 µM)
S.pneumoniae. 907; [6]
  MIC: ≤ 0.06 µg/mL
E.faecalis 6; [7]
  MIC: 0.25 µg/mL (≈ 0.464 µM)
E.cloacae 908SSi; [8]
  MIC: 0.12 µg/mL (≈ 0.223 µM)
P.mirabilis 2117; [9]
  MIC: 0.12 µg/mL (≈ 0.223 µM)
S.marcescens 69438; [10]
  MIC: 0.12 µg/mL (≈ 0.223 µM)
P.vulgaris 1028; [11]
  MIC: > 32 µg/mL
E.cloacae 908R; [12]
  MIC: 1 µg/mL (≈ 1.86 µM)
K.pneumoniae 418; [13]
  MIC: ≤ 0.06 µg/mL
S.aureus 743 (MRSA); [14]
  MIC: 8 µg/mL (≈ 14.9 µM)
P.aeruginosa ATCC27853; [15]
  MIC: 8 µg/mL (≈ 14.9 µM)
